Measured values from patent publication US20250120975A1, “INTEGRIN INHIBITORS FOR TREATMENT OF PRIMARY SCLEROSING CHOLANGITIS” (Pliant Therapeutics, Inc., priority 2023, published 2025).
Entries after “also recorded” stand apart in the source; their conditions may differ.

Tests used:
[1] = target: αVβ6 integrin (Homo sapiens, UniProt P06756+P18564); experiment: Inhibition of αVβ6 integrin (IC50); assay type: binding; conditions: read-out: 50% inhibitory concentration [IC50] αVβ6
[2] = target: αVβ1 integrin (Homo sapiens, UniProt P05556+P06756); experiment: Inhibition of αVβ1 integrin (IC50); assay type: binding; conditions: read-out: 50% inhibitory concentration [IC50] αVβ1
[3] = system: other integrin receptors; experiment: Integrin-ligand binding assays (selectivity); conditions: including leukocyte-expressed integrins
[4] = Effect of food on pharmacokinetics of the solution; assay type: in vivo
[5] = system: subjects with PSC and suspected liver fibrosis; experiment: Phase 2a INTEGRIS-PSC: liver biochemistry (ALP, ALT, AST, bilirubin); assay type: in vivo, human
Procedure: Fasting blood and urine specimens for safety laboratory assessments were or will be obtained at the time points specified in the Schedule of Events (see Table B-4, Table B-5, and Table B-6). Specimens are obtained after at least an 8-hour fast. Subjects are in a seated or supine position during blood collection. Creatinine clearance is calculated using the Cockcroft-Gault equation.
Absolute and relative changes from Baseline in liver fibrosis biomarkers (including PRO-C3 and ELF) and in ALP are presented in numerical and graphical forms by treatment and dose utilizing data from the timepoints specified in the Schedule of Events. Changes from Baseline to Week 12(Parts 1 and 2) and Week 24 (Part 3) in magnetic resonance (MR)-based liver imaging are also evaluated, as well as changes in PROs.

[6] = system: subjects with PSC and suspected liver fibrosis; experiment: Phase 2a INTEGRIS-PSC: Itch Numerical Rating Scale (NRS); assay type: in vivo, human
Procedure: In one embodiment is provided a method of reducing itch or pruritus (chronic itching). Itch can be quantified on a 0-10 scale using the Peak Pruritus Numerical Rating Scale (NRS), where 0 is “no itch” and 10 is “worst imaginable itch” over the past 24 hours (Yosipovitch et al., British Journal of Dermatology (2019) 181:761-769, incorporated by reference herein in its entirety). In embodiments, a method of reducing pruritus in a human who has fibrotic liver disease is provided, comprising administering to the human(S)-4-((2-methoxyethyl)(4-(5,6,7,8-tetrahydro-1,8-naphthyridin-2-yl)butyl)amino)-2-(quinazolin-4-ylamino)butanoic acid, or a pharmaceutically acceptable salt thereof. In embodiments, a method of reducing (e.g., ameliorating) pruritus in a human who has fibrotic liver disease (e.g., primary sclerosing cholangitis) is provided, comprising administering to the human(S)-4-((2-methoxyethyl)(4-(5,6,7,8-tetrahydro-1,8-naphthyridin-2-yl)butyl)amino)-2-(quinazolin-4-ylamino)butanoic acid, or a pharmaceutically acceptable salt thereof, as compared to a human who has not been administered(S)-4-((2-methoxyethyl)(4-(5,6,7,8-tetrahydro-1,8-naphthyridin-2-yl)butyl)amino)-2-(quinazolin-4-ylamino)butanoic acid, or a pharmaceutically acceptable salt thereof. […] In further embodiments, pruritus is reduced as measured by a change in itch numerical rating scale from between about 0.8 and about-0.2 at about 12 weeks following a first administration of (S)-4-((2-methoxyethyl)(4-(5,6,7,8-tetrahydro-1,8-naphthyridin-2-yl)butyl)amino)-2-(quinazolin-4-ylamino)butanoic acid, or a pharmaceutically acceptable salt thereof to the human. […]

Chain of αVβ1 integrin (P06756 31-1048): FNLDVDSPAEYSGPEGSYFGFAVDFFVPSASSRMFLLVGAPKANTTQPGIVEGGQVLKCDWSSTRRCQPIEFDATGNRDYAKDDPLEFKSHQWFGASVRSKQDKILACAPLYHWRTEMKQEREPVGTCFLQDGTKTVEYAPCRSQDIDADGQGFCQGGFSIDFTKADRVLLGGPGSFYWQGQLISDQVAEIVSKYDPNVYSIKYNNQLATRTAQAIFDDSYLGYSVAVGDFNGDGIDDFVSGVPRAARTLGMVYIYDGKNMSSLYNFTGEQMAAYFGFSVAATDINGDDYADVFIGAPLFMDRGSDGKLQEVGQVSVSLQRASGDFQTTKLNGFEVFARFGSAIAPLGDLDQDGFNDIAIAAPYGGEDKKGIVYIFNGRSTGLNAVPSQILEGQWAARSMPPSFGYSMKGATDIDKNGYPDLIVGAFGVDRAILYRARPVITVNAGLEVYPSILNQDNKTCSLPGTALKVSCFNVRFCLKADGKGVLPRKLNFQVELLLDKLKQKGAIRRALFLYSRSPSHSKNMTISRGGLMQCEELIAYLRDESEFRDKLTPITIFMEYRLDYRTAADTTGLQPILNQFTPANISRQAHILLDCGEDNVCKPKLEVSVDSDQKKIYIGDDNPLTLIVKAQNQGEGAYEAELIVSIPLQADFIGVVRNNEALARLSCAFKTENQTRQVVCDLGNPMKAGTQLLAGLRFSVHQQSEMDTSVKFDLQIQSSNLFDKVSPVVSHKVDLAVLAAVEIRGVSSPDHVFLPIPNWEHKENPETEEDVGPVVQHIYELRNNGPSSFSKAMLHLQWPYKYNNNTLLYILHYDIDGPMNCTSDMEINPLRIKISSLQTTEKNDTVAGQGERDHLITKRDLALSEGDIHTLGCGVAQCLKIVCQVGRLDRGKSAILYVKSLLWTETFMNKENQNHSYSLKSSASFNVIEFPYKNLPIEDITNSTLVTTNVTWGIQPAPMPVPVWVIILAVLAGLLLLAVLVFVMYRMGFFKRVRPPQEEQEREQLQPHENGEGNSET
Chain of αVβ1 integrin (P05556 21-798): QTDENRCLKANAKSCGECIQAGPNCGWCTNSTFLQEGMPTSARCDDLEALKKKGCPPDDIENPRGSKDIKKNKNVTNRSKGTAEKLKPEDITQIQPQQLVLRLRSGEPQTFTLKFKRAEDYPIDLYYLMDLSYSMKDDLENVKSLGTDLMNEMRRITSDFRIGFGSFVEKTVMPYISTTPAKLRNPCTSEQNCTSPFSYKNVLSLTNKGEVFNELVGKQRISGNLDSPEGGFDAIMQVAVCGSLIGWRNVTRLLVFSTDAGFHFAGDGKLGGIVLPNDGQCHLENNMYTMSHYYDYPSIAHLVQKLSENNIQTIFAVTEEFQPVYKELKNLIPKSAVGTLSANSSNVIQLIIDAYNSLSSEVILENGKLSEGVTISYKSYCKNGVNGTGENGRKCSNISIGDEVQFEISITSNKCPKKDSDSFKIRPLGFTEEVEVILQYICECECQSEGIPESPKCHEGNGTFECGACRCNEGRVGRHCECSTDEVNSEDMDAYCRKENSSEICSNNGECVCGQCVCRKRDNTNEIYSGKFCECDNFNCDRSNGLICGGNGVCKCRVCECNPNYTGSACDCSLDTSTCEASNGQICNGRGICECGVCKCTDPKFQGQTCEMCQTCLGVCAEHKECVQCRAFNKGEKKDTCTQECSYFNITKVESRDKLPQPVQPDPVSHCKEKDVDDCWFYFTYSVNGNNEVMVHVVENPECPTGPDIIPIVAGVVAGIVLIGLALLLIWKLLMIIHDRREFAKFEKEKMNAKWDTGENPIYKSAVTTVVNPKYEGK
Chain of αVβ6 integrin (P06756 31-1048): as the sequence (P06756 31-1048) above
Chain of αVβ6 integrin (P18564 22-788): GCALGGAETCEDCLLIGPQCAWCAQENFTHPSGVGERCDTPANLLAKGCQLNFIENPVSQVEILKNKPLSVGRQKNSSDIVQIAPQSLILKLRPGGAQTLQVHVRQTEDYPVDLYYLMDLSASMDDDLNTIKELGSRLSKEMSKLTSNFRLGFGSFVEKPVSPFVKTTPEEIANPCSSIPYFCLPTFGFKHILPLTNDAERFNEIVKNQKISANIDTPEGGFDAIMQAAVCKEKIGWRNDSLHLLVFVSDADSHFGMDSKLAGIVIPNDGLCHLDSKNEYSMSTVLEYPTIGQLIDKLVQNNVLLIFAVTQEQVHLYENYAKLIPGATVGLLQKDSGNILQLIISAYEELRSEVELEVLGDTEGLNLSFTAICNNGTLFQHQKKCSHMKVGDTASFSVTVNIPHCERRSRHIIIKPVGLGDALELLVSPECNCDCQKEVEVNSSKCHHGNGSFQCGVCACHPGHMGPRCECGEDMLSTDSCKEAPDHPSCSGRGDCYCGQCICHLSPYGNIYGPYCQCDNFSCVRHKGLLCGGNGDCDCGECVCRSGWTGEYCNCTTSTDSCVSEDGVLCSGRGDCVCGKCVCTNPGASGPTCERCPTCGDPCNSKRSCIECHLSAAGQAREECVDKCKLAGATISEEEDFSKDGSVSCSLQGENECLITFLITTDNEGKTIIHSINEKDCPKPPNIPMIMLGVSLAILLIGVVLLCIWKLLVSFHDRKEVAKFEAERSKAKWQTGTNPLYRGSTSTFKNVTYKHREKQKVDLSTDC

COCCN(CCCCc1ccc2c(n1)NCCC2)CC[C@H](Nc1ncnc2ccccc12)C(=O)O [Bexotegrast, (S)-4-((2-methoxyethyl)(4-(5,6,7,8-tetrahydro-1,8-naphthyridin-2-yl)butyl)amino)-2-(quinazolin-4-ylamino)butanoic acid]
IC50 [1]: 5.7 nM
IC50 [2]: 3.4 nM
selectivity for αVβ6 and αVβ1 over other integrin receptors [3]: highly selective
decrease of AUCinf in the fed state relative to the fasted state [4]: 37%
decrease of Cmax in the fed state relative to the fasted state [4]: 52%
ALP, all participants ([5]; 320 mg, over 24 weeks, compared to increased levels on placebo, Example B-5): statistically significant reduction
ALP, patients with elevated baseline ALP values ([5]; 320 mg, over 24 weeks, Example B-5): greater reductions
ALP relative to placebo ([5]; 40, 80, 160 mg, Week 12, Example B-3): dose-dependent trend for reduction in ALP
liver chemistry levels (ALT, AST, total and direct bilirubin) ([5]; all doses versus increases in placebo, Week 12, Example B-3): stabilization of liver chemistry levels
ALP relative to the placebo ([5]; subgroup with elevated ALP (>ULN) at Baseline, Week 12, Example B-4): stabilized
Itch Numerical Rating Scale (NRS) score ([6]; 320 mg, over 24 weeks, relative to an increase on placebo, Example B-5): did not increase; also recorded: stable score
itch (NRS) relative to placebo ([6]; 40, 80, 160 mg, Week 12, statistical significance for the 160 mg dose, Example B-3): dose dependent reductions
itch (NRS) relative to the placebo ([6]; 40-320 mg, Week 12, statistical significance for the 160 mg, 320 mg groups, Example B-4): dose-dependent reductions
